Measured values taken from US20040082557A1, “Methods for treating estrogen-dependent disorders” (priority 2001, published 2004).

Assays:
endometrial explants = experiment: Animal model of endometriosis in adult female rats (endometrium autotransplanted under the renal capsule); type: in vivo, rat; settings: for volume of the explant: measured one week after the fourth weekly dose
[1] = tested on: pain symptoms in premenopausal women; experiment: Randomized, double-blind, parallel group clinical study of exemestane on pain symptoms in premenopausal women with endometriosis; type: in vivo, human; settings: for ESS Composite Improvement from Visit 6 (Baseline): No / ESS Composite Improvement from Visit 6 (Baseline): Yes: % of total reported
[2] = 25 mg orally per day, Visit 10 (4 weeks of exemestane)
[3] = 25 mg orally per day, Visit 10 (4 weeks of exemestane), improvement = decrease of at least 1 point
[4] = 25 mg orally per day, Visit 14 (8 weeks of exemestane)
[5] = 25 mg orally per day, Visit 18 (follow-up)
[6] = 100 mg orally per day, Visit 10 (4 weeks of exemestane)
[7] = 100 mg orally per day, Visit 10 (4 weeks of exemestane), improvement = decrease of at least 1 point
[8] = 100 mg orally per day, Visit 14 (8 weeks of exemestane)
[9] = 100 mg orally per day, Visit 18 (follow-up)
[10] = either treatment group (25 or 100 mg/day), over the study period

Compound: C=C1C[C@@H]2[C@H](CC[C@]3(C)C(=O)CC[C@@H]23)[C@@]2(C)C=CC(=O)C=C12 [Exemestane, 6-methylenandrost-1,4-diene-3,17-dione]
- volume of the explant (endometrial explants; exemestane alone, intramuscularly once a week for 4 consecutive weeks): dose-related decrease in the volume of the explant
- effect on growth of the endometrial explants, combination (endometrial explants; exemestane in combination with triptorelin at marginally or intermediate effective doses, 4 weeks): additive or synergistic effect
- tolerability ([1]; 25 mg and 100 mg, 54 woman subjects who received at least one dose): well tolerated
- Dysmenorrhea: Improvement over Visit 6 (Baseline, Start of Treatment): No [1, 2]: 44.0%
- Dyspareunia: Improvement over Visit 6 (Baseline, Start of Treatment): No [1, 2]: 35.3%
- Pelvic Pain: Improvement over Visit 6 (Baseline, Start of Treatment): No [1, 2]: 44.0%
- ESS Scale, Composite Score, Change from Visit 6, Mean ([1]; 25 mg orally per day, Visit 10 (4 weeks of exemestane), 17 patients with 3 endpoints evaluated, Visit 6 mean 5.0588, SD 2.0917, within treatment p 0.002): −2.000
- ESS Composite Improvement from Visit 6 (Baseline): No [1, 2]: 56.0%
- ESS Composite Improvement from Visit 6 (Baseline): Yes ([1]; 25 mg orally per day, Visit 10 (4 weeks of exemestane), improvement = at least 3-point decrease (3 symptoms) or 2-point (2 symptoms)): 44.0%
- Dysmenorrhea: Improvement over Visit 6 (Baseline, Start of Treatment): Yes [1, 3]: 56.0%
- Dyspareunia: Improvement over Visit 6 (Baseline, Start of Treatment): Yes [1, 3]: 64.7%
- Pelvic Pain: Improvement over Visit 6 (Baseline, Start of Treatment): Yes [1, 3]: 56.0%
- Dysmenorrhea: Improvement over Visit 6 (Baseline, Start of Treatment): No [1, 4]: 41.7%
- Dysmenorrhea: Improvement over Visit 6 (Baseline, Start of Treatment): Yes [1, 4]: 58.3%
- Dyspareunia: Improvement over Visit 6 (Baseline, Start of Treatment): No [1, 4]: 31.6%
- Dyspareunia: Improvement over Visit 6 (Baseline, Start of Treatment): Yes [1, 4]: 68.4%
- Pelvic Pain: Improvement over Visit 6 (Baseline, Start of Treatment): No [1, 4]: 41.7%
- Pelvic Pain: Improvement over Visit 6 (Baseline, Start of Treatment): Yes [1, 4]: 58.3%
- ESS Scale, Composite Score, Change from Visit 6, Mean ([1]; 25 mg orally per day, Visit 14 (8 weeks of exemestane), 19 patients, Visit 6 mean 5.1579, SD 1.8257, within treatment p <0.001): −2.000
- ESS Composite Improvement from Visit 6 (Baseline): No [1, 4]: 66.7%
- ESS Composite Improvement from Visit 6 (Baseline): Yes [1, 4]: 33.3%
- Dysmenorrhea: Improvement over Visit 6 (Baseline, Start of Treatment): No [1, 5]: 64.0%
- Dysmenorrhea: Improvement over Visit 6 (Baseline, Start of Treatment): Yes [1, 5]: 36.0%
- Dyspareunia: Improvement over Visit 6 (Baseline, Start of Treatment): No [1, 5]: 29.4%
- Dyspareunia: Improvement over Visit 6 (Baseline, Start of Treatment): Yes [1, 5]: 70.6%
- Pelvic Pain: Improvement over Visit 6 (Baseline, Start of Treatment): No [1, 5]: 68.0%
- Pelvic Pain: Improvement over Visit 6 (Baseline, Start of Treatment): Yes [1, 5]: 32.0%
- ESS Scale, Composite Score, Change from Visit 6, Mean ([1]; 25 mg orally per day, Visit 18 (follow-up), 17 patients, Visit 6 mean 5.0588, SD 1.8028, within treatment p <0.001): −2.000
- ESS Composite Improvement from Visit 6 (Baseline): No [1, 5]: 84.0%
- ESS Composite Improvement from Visit 6 (Baseline): Yes [1, 5]: 16.0%
- Dyspareunia score, Change from Baseline, Mean ± SD ([1]; 25 mg, Visit 10 (4 weeks of exemestane), baseline 1.6 ± 0.7, N 17): −0.9 ± 0.8
- Pelvic Pain score, Change from Baseline, Mean ± SD ([1]; 25 mg, Visit 10 (4 weeks of exemestane), baseline 1.8 ± 0.5, N 25): −0.6 ± 0.9
- Dysmenorrhea score, Change from Baseline, Mean ± SD ([1]; 25 mg, Visit 10 (4 weeks of exemestane), baseline 2.0 ± 0.6, N 17): −0.9 ± 0.8
- Dyspareunia score, Change from Baseline, Mean ± SD ([1]; 25 mg, Visit 14 (8 weeks of exemestane), baseline 1.6 ± 0.7, N 19): −0.8 ± 0.6
- Pelvic Pain score, Change from Baseline, Mean ± SD ([1]; 25 mg, Visit 14 (8 weeks of exemestane), baseline 1.8 ± 0.5, N 24): −0.6 ± 0.9
- Dysmenorrhea score, Change from Baseline, Mean ± SD ([1]; 25 mg, Visit 14 (8 weeks of exemestane), baseline 2.0 ± 0.6, N 19): −0.8 ± 0.6
- Dysmenorrhea: Improvement over Visit 6 (Baseline, Start of Treatment): No [1, 6]: 38.5%
- Dyspareunia: Improvement over Visit 6 (Baseline, Start of Treatment): No [1, 6]: 38.9%
- Pelvic Pain: Improvement over Visit 6 (Baseline, Start of Treatment): No [1, 6]: 30.8%
- ESS Scale, Composite Score, Change from Visit 6, Mean ([1]; 100 mg orally per day, Visit 10 (4 weeks of exemestane), 18 patients, Visit 6 mean 5.9444, SD 2.0364, within treatment p <0.001): −2.5000
- ESS Composite Improvement from Visit 6 (Baseline): No [1, 6]: 46.2%
- ESS Composite Improvement from Visit 6 (Baseline): Yes ([1]; 100 mg orally per day, Visit 10 (4 weeks of exemestane), improvement = at least 3-point decrease (3 symptoms) or 2-point (2 symptoms)): 53.8%
- Dysmenorrhea: Improvement over Visit 6 (Baseline, Start of Treatment): Yes [1, 7]: 61.5%
- Dyspareunia: Improvement over Visit 6 (Baseline, Start of Treatment): Yes [1, 7]: 61.1%
- Pelvic Pain: Improvement over Visit 6 (Baseline, Start of Treatment): Yes [1, 7]: 69.2%
- Dysmenorrhea: Improvement over Visit 6 (Baseline, Start of Treatment): No [1, 8]: 39.1%
- Dysmenorrhea: Improvement over Visit 6 (Baseline, Start of Treatment): Yes [1, 8]: 60.9%
- Dyspareunia: Improvement over Visit 6 (Baseline, Start of Treatment): No [1, 8]: 47.1%
- Dyspareunia: Improvement over Visit 6 (Baseline, Start of Treatment): Yes [1, 8]: 52.9%
- Pelvic Pain: Improvement over Visit 6 (Baseline, Start of Treatment): No [1, 8]: 30.4%
- Pelvic Pain: Improvement over Visit 6 (Baseline, Start of Treatment): Yes [1, 8]: 69.6%
- ESS Scale, Composite Score, Change from Visit 6, Mean ([1]; 100 mg orally per day, Visit 14 (8 weeks of exemestane), 17 patients, Visit 6 mean 5.5882, SD 1.9059, within treatment p <0.001): −2.4118
- ESS Composite Improvement from Visit 6 (Baseline): No [1, 8]: 43.5%
- ESS Composite Improvement from Visit 6 (Baseline): Yes [1, 8]: 56.5%
- Dysmenorrhea: Improvement over Visit 6 (Baseline, Start of Treatment): No [1, 9]: 50.0%
- Dysmenorrhea: Improvement over Visit 6 (Baseline, Start of Treatment): Yes [1, 9]: 50.0%
- Dyspareunia: Improvement over Visit 6 (Baseline, Start of Treatment): No [1, 9]: 50.0%
- Dyspareunia: Improvement over Visit 6 (Baseline, Start of Treatment): Yes [1, 9]: 50.0%
- Pelvic Pain: Improvement over Visit 6 (Baseline, Start of Treatment): No [1, 9]: 31.8%
- Pelvic Pain: Improvement over Visit 6 (Baseline, Start of Treatment): Yes [1, 9]: 68.2%
- ESS Scale, Composite Score, Change from Visit 6, Mean ([1]; 100 mg orally per day, Visit 18 (follow-up), 14 patients, Visit 6 mean 5.5714, SD 1.7852, within treatment p 0.016): −1.4286
- ESS Composite Improvement from Visit 6 (Baseline): No [1, 9]: 50.0%
- ESS Composite Improvement from Visit 6 (Baseline): Yes [1, 9]: 50.0%
- Dyspareunia score, Change from Baseline, Mean ± SD ([1]; 100 mg, Visit 10 (4 weeks of exemestane), baseline 1.9 ± 1.0, N 18): −1.0 ± 1.3
- Pelvic Pain score, Change from Baseline, Mean ± SD ([1]; 100 mg, Visit 10 (4 weeks of exemestane), baseline 2.1 ± 0.5, N 26): −0.8 ± 0.7
- Dysmenorrhea score, Change from Baseline, Mean ± SD ([1]; 100 mg, Visit 10 (4 weeks of exemestane), baseline 2.1 ± 0.7, N 18): −1.0 ± 1.3
- Dyspareunia score, Change from Baseline, Mean ± SD ([1]; 100 mg, Visit 14 (8 weeks of exemestane), baseline 1.9 ± 1.0, N 17): −0.8 ± 0.8
- Pelvic Pain score, Change from Baseline, Mean ± SD ([1]; 100 mg, Visit 14 (8 weeks of exemestane), baseline 2.1 ± 0.5, N 23): −0.8 ± 0.8
- Dysmenorrhea score, Change from Baseline, Mean ± SD ([1]; 100 mg, Visit 14 (8 weeks of exemestane), baseline 2.1 ± 0.7, N 17): −0.8 ± 0.7
- endometriosis symptoms ([1]; 25 or 100 mg orally per day, 2 months): moderate improvement in endometriosis symptoms
- blood pressure [1, 10]: Neither blood pressure nor body weight changed significantly
- body weight [1, 10]: Neither blood pressure nor body weight changed significantly
- hematology, plasma chemistry or urinalysis laboratory assays [1, 10]: No noteworthy changes

Compound: CC(C)C[C@H](NC(=O)[C@@H](Cc1c[nH]c2ccccc12)NC(=O)[C@H](Cc1ccc(O)cc1)NC(=O)[C@H](CO)NC(=O)[C@H](Cc1c[nH]c2ccccc12)NC(=O)[C@H](Cc1c[nH]cn1)NC(=O)[C@@H]1CCC(=O)N1)C(=O)N[C@@H](CCCNC(=N)N)C(=O)N1CCC[C@H]1C(=O)NCC(N)=O [triptorelin]
- volume of the explant (endometrial explants; triptorelin alone, subcutaneously once weekly for 4 weeks): dose-related decrease in the volume of the explant
